“Also recorded” adds a separate entry of the source. Ends that are not written are not given here.
What was measured:
[1] = target: T1, Calcitonin Receptor (CTR) (Homo sapiens, UniProt P30988); test: Prolonged β-arrestin recruitment, calcitonin receptor activation over time (U2OS CALCR cells); type: cell-based; conditions: single dose of 100 nM at t=0, read up to 72 hours, FIGS. 3A-3B
T1 construct: host or cells: U2OS
T1 sequence (P30988 25-474): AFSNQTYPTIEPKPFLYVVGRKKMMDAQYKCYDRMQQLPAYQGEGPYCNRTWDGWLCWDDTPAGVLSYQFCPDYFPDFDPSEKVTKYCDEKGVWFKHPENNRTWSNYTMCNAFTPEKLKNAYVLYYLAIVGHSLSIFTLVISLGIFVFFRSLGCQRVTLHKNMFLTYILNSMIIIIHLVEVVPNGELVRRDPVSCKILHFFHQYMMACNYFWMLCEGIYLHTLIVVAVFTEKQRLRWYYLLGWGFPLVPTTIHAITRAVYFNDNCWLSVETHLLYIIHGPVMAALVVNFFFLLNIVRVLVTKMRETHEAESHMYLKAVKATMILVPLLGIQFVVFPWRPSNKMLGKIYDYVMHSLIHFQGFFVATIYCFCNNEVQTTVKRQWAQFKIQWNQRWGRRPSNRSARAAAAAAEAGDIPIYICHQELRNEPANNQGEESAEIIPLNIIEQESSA
Protocol: FIGS. 3A-3B: Prolonged β-arrestin recruitment by KBP-046-KBP-054 (FIG. 3A) and KBP-058-KBP-063 (FIG. 3B) and human calcitonin as a function of calcitonin receptor activation. Single dose of 100 nM at t=0 and after 3, 6, 24, and 72 hours after initial treatment, β-arrestin recruitment was assessed to investigate each ligands protracted potential. Data is shown as fold of vehicle. Screening was conducted in U2OS CALCR Pathhunter cells from DiscoveRx.
(§1) In the following examples, the following materials and methods were employed. The following cell lines expressing the calcitonin, amylin and CGRP receptors were purchased and cultured according to the manufacturer's instructions. • 1. Calcitonin Receptor (CTR): U2OS-CALCR from DiscoveRx (Cat. No.: 93-0566C3). • 2. Amylin Receptor (AMY-R): CHO-K1 CALCR+RAMP3 from DiscoveRx (Cat. No.: 93-0268C2). In independent bioassays, CTR and AMY-R cells were treated with for the indicated timepoints with increasing doses of KBPs identified in Tables 1A and 1B (1000, 250, 62.5, 15.6, 3.9, 1.0, 0.24, 0.06, 0.02 nM and vehicle).
(§2) PathHunter β-Arrestin GPCR assays are whole cell, functional assays that directly measure the ability of a ligand to activate a GPCR by detecting the interaction of β-Arrestin with the activated GPCR. Because β-arrestin recruitment is independent of G-protein signaling, these assays offer a powerful and universal screening and profiling platform that can be used for virtually any Gi-, Gs, or Gq-coupled receptor.
(§3) In this system, the GPCR is fused in frame with the small enzyme fragment ProLink™ and co-expressed in cells stably expressing a fusion protein of β-Arrestin and the larger, N-terminal deletion mutant of β-gal (called enzyme acceptor or EA). Activation of the GPCR stimulates binding of β-Arrestin to the ProLink-tagged GPCR and forces complementation of the two enzyme fragments, resulting in the formation of an active β-gal enzyme. This interaction leads to an increase in enzyme activity that can be measured using chemiluminescent PathHunter® Detection Reagents.
(§4) The assay was performed in white 384 well plates (Greiner Bio-One, 784080). Cells were seeded 2500 cells per well in 10 μL cell-type specific medium the day prior to the experiment. To quantify the GPCR-mediated β-arrestin recruitment the Pathhunter™ Detection Kit (93-0001, DiscoverX) was used and assay performed accordingly to the manufacturer's instructions. Furthermore, data from the Pathhunter™ β-arrestin recruitment assay was normalized to an internal standard to improve the distinction between top KBP performers and non-performers.
Results are seen in FIGS. 1A-1B, 2A-2B and 3A-3B. […] This was done using the calcitonin receptor (CTR): U2OS-CALCR from DiscoveRx (Cat. No.: 93-0566C3) cell line, and as opposed to the classical three hour output, β-arrestin accumulation was conducted over 24, 48 and 72 hour and then analyzed.

[2] = target: T2, Amylin Receptor (AMY-R) (Homo sapiens, UniProt P30988); test: PathHunter β-arrestin recruitment dose response, amylin receptor activation (CHO-K1 CALCR RAMP3 cells); type: cell-based; conditions: FIGS. 2A-2B
T2 construct: host or cells: CHO-K1
T2 sequence (P30988 25-474): T1 sequence (P30988 25-474)
T2 sequence (O60896 24-148 partner): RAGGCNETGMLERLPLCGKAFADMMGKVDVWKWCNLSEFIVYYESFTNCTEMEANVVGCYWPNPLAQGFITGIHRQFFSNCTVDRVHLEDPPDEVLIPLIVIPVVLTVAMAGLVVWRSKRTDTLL
Protocol: FIGS. 2A-2B: β-arrestin recruitment dose response by KBP-046-KBP-054 (FIG. 2A) and KBP-058-KBP-063 (FIG. 2B) as a function of amylin receptor activation. Dose range is 1 μM to 15 μM and data is shown as fold of vehicle. Screening was conducted in CHO-K1 CALCR RAMP3 Pathhunter cells from DiscoveRx.
as §1, §2, §3, §4

[3] = tested on: Sprague Dawley Rats; test: Food intake in healthy Sprague Dawley rats after single s.c. dose; type: in vivo, rat; conditions: single s.c. dose 2.5 μg/kg; for Food Intake ΔFOOD Sustained Attenuation Hours: SD rats fasted overnight, food intake monitored 0-4 h and 4-24 h; for reduction in food intake within the 4 hour interval / time to which the reduction in food intake was maintained (sustained effect) / size of reduction in food intake compared with the other tested peptides: SD rats; for reduction in food intake within the 4 hour interval: 0-4 hours; for time to which the reduction in food intake was maintained (sustained effect): intervals 0-4 and 4-24 hours; for size of reduction in food intake compared with the other tested peptides: FIG. 4A (KBP-046 to -054) and FIG. 4B (KBP-058 to -063)
Protocol: FIGS. 4A-43: Protracted attenuation of food intake in SD rats by KBP-046-KBP-054 (FIG. 4A) and KBP-058-KBP-063 (FIG. 4B). After single s.c dose of 2.5 μg/kg of KBP, food intake was monitored in intervals of 0-4 h and 4-24 h to assess the protracted action of individual KBPs. Individual rats were single caged, n=4 in each group.
Rats were single caged four days prior to individual tests. They were randomized by weight into seven groups (Vehicle (0.9% NaCl), KBPs (doses: 2.5 μg/kg). They were fasted overnight and then treated with a single dose of peptide or vehicle in the morning using subcutaneous administration. The food intake was monitored in the following intervals (0-4 hours and 4-24 hours).

Substance | protracted calcitonin receptor activation (prolonged β-arrestin recruitment, fold of vehicle) [1] | amylin receptor activation (β-arrestin recruitment, fold of vehicle) [2] | Food Intake ΔFOOD Sustained Attenuation Hours [3] [h] | reduction in food intake within the 4 hour interval [3] | time to which the reduction in food intake was maintained (sustained effect) [3] [h] | size of reduction in food intake compared with the other tested peptides [3]
CGNLSTCMLGRLSQDLNKFHTFPKTDVGANAP (not fully specified; ends and bridges not checked) [KBP-047, Calcitonin mimetic peptide] | superior | potent amylin agonists | 24 | reduction in food intake | 24 | largest reduction; also recorded: far greater reduction in food intake
CGNLSTCMLGRLSQDLNKFHTFPQTDVGANAP (not fully specified; ends and bridges not checked) [KBP-063, Calcitonin mimetic peptide] | superior | potent amylin agonists | 24 | reduction in food intake | 24 | far greater reduction in food intake
CGNLSTCMLGRLTQDFHKLHTFPKTDVGANAP (not fully specified; ends and bridges not checked) [KBP-058, Calcitonin mimetic peptide] | superior | potent amylin agonists | 24 | reduction in food intake | 24 | far greater reduction in food intake
CGNLSTCMLGRLTQDLHKLQTFPKTDVGANAP (not fully specified; ends and bridges not checked) [KBP-053, Calcitonin mimetic peptide] | superior | potent amylin agonists | 24 | reduction in food intake | 24 | far greater reduction in food intake
CGNLSTCMLGRLTQDLNKFHTFPKTDVGANAP (not fully specified; ends and bridges not checked) [KBP-062, Calcitonin mimetic peptide] | superior | potent amylin agonists | 24 | reduction in food intake | 24 | largest reduction; also recorded: top performance in the screening; also recorded: far greater reduction in food intake
KBP-046: Calcitonin mimetic peptide, Table 1 residues CGNLSTCMLGTYTQDFHRLQTYPKTDVGANAP (not fully specified; ends and bridges not checked) | – | – | 4 | – | – | –
KBP-048: Calcitonin mimetic peptide, Table 1 residues CGNLSTCMLGTYTQDFNKFNTFPKTDVGANAP | – | – | 4 | – | – | –
KBP-050: Calcitonin mimetic peptide, Table 1 residues CGNLSTCMLGRLSQDLHRLQTYPKTAIGVGAP (not fully specified; ends and bridges not checked) | – | – | 4 | – | – | –
KBP-051: Calcitonin mimetic peptide, Table 1 residues CSNLSTCMLGRLSQDLHRLQTYPKTAIGVGAP (not fully specified; ends and bridges not checked) | – | – | 4 | – | – | –
KBP-052: Calcitonin mimetic peptide, Table 1 residues CSNLSTCMLGTYTQDFHRLQTYPKTAIGVGAP (not fully specified; ends and bridges not checked) | – | – | 4 | – | – | –
KBP-054: Calcitonin mimetic peptide, Table 1 residues CGNLST, positions 7-8 blank, LGRYTQDFHKPQTFPKTDVGANAP | – | – | 4 | – | – | –
KBP-059: Calcitonin mimetic peptide, Table 1 residues CGNLSTCMLGTYTQDLHKLHTFPKTDVGANAP (not fully specified; ends and bridges not checked) | – | – | 4 | – | – | –
KBP-060: Calcitonin mimetic peptide, Table 1 residues CGNLSTCMLGTYTQDFHRLQTFPQTDVGANAP | – | – | 4 | – | – | –
KBP-061: Calcitonin mimetic peptide, Table 1 residues CGNLSTCMLGTYTQDFHRLQTFPQTDVGANAP (printed identical to KBP-060) (not fully specified; ends and bridges not checked) | – | – | 4 | – | – | –
